From PubChem BioAssay (NCI)
Values joined by “and” are separate entries in the source; they are usually repeats but may differ in a detail not shown here. Identical values can stand only once.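 In this assay, cells in 96-well plates receive the compound at five concentrations for 48 hours. Endpoints are linearly interpolated between the surrounding concentrations. GI50: concentration for 50% inhibition of growth. The concentration for full growth arrest is given as TGI.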

Assays:
Assay in all cases: growth of human tumour cells (NCI), 48 h
[1] = system: SF-295 CNS
[2] = system: NCI-H226 lung
[3] = system: SR leukemia
[4] = system: HCT-116 colon
[5] = system: NCI/ADR-RES ovarian
[6] = system: HCC-2998 colon
[7] = system: UACC-257 melanoma
[8] = system: MDA-MB-435
[9] = system: DU-145 prostate
[10] = system: A498 renal
[11] = system: RXF 393 renal
[12] = system: UACC-62 melanoma
[13] = system: UO-31 renal
[14] = system: OVCAR-3 ovarian
[15] = system: T-47D breast
[16] = system: EKVX NSCLC

Compound	TGI [1]	TGI [2] [µM]	TGI [3]	TGI [4]	TGI [5]	TGI [6]	TGI [7]	TGI [8]	TGI [9]	TGI [10] [µM]	TGI [11]	TGI [12]	TGI [13]	TGI [14]	TGI [15]	TGI [16]	GI50 [14]	GI50 [2] [µM]	GI50 [4] [µM]	GI50 [11] [µM]
CC(O)/C=C/C1OC(=O)CC1Nc1ccc(C=O)cc1 (centres undefined)	> 100 µM	> 100	73.8 µM	> 100 µM	> 100 µM	> 100 µM	> 100 µM	> 100 µM	> 100 µM	> 100	> 100 µM	58.1 µM	> 100 µM	> 100 µM	> 100 µM	> 100 µM				
O=C(/C=C/c1ccc(O)c(O)c1)O[C@H]1CCCC[C@@H]1OC(=O)/C=C/c1ccc(O)c(O)c1	33.3 µM		> 100 µM	19 µM	91.2 µM	33.7 µM	77 µM	27.1 µM	41.8 µM	43.2	27.6 µM	27.4 µM	27.8 µM	26.7 µM	98.8 µM	53.8 µM				
N#CCc1nc(-c2cc3ccc(O)cc3oc2=O)cs1	> 100 µM	> 100	> 100 µM	> 100 µM	> 100 µM	> 100 µM	> 100 µM	> 100 µM	> 100 µM		> 100 µM	63.3 µM	> 100 µM		> 100 µM	> 100 µM				
CCOC(=O)/C=C(/C(=O)OCC)n1cc(C)c(=O)[nH]c1=O	31.6 µM	10.7	5.24 µM	5.74 µM	33.7 µM	17.5 µM	26 µM	10.2 µM	29.7 µM	26.4	4.52 µM	15.8 µM	23.5 µM	6.71 µM	17.5 µM	15.6 µM				
CNc1ccc(Cl)cc1C(=O)N1CCC[C@H]1CO	> 100 µM	> 100	> 100 µM	> 100 µM	> 100 µM	> 100 µM	> 100 µM	> 100 µM	> 100 µM	> 100	> 100 µM	> 100 µM	> 100 µM	> 100 µM	> 100 µM	> 100 µM				
COC(OC)[C@@H]1OC[C@H](n2ccc(=O)[nH]c2=O)[C@H]1O	> 100 µM	> 100	> 100 µM	> 100 µM	> 100 µM	> 100 µM	> 100 µM	> 100 µM	> 100 µM	> 100	> 100 µM	> 100 µM	> 100 µM	> 100 µM	> 100 µM	> 100 µM				
Oc1c(O)c(Cc2ccccc2)c(Cc2ccccc2)c(Cc2ccccc2)c1Cc1ccccc1	> 10 µM	> 10	> 10 µM	> 10 µM	> 10 µM	> 10 µM	> 10 µM	> 10 µM	> 10 µM	> 10	> 10 µM	> 10 µM	> 10 µM	> 10 µM	> 10 µM	> 10 µM				
O=c1[nH]nc(Cc2ccc(Cl)cc2)n1CCO	> 100 µM	> 100		> 100 µM	> 100 µM	> 100 µM	> 100 µM	> 100 µM	> 100 µM	> 100		> 100 µM	> 100 µM	> 100 µM	> 100 µM	> 100 µM				
Cc1[nH]c2[nH]c(=S)nc(NC(N)=S)c2c1Cc1ccccc1	> 100 µM	> 100	36.2 µM	> 100 µM	> 100 µM		> 100 µM	36.6 µM	> 100 µM	> 100		> 100 µM	> 100 µM	77.4 µM	89.4 µM	> 100 µM				
CC(=O)OC1OC(C2c3cccc(O)c3C(=O)c3c(O)cc(CO)cc32)C(O)C(O)C1O (centres undefined)	10.5 µM and 22 µM		> 100 µM and 33.1 µM	11.2 µM and 10.8 µM	44.7 µM and 28.1 µM	5.81 µM and 6.58 µM	32.8 µM and 33.7 µM	11.6 µM and 14.3 µM	> 100 µM and 84.1 µM	26.4	29.8 µM and 55.5 µM	16.6 µM and 17.7 µM	22.5 µM and 21.3 µM	22.4 µM and 12.1 µM	27.3 µM and 15.6 µM	36.8 µM and 26 µM	9.16 µM and 3.51 µM			
CN1CCN(c2ccc3nc(-c4ccc5nc(CCCc6ccc(N(CCCl)CCCl)cc6)[nH]c5c4)[nH]c3c2)CC1	> 100 µM	> 100	> 100 µM	> 100 µM	> 100 µM	> 100 µM	> 100 µM	> 100 µM	> 100 µM	> 100	> 100 µM	> 100 µM	> 100 µM		> 100 µM					
CC(=O)O[C@H]1C(=O)[C@@]2(C)[C@H]([C@H](OC(=O)c3ccccc3)[C@]3(O)C[C@H](OC(=O)[C@H](O)[C@@H](NC(=O)C(C)(O)C(C)O)c4ccccc4)C(C)=C1C3(C)C)[C@]1(OC(C)=O)CO[C@@H]1C[C@@H]2O (some centres undefined)	16.5 µM		> 15.9 µM		> 50 µM	0.743 µM	> 50 µM	0.169 µM	> 12.1 µM	> 50	1.81 µM	> 50 µM	> 50 µM	0.437 µM	> 50 µM	> 50 µM				
CCOC(=O)COc1cc(-c2ccccc2)nc2cc(F)ccc12	> 100 µM	> 100	> 100 µM	> 100 µM	> 100 µM	> 100 µM	> 100 µM	> 100 µM	> 100 µM	> 100	> 100 µM	> 100 µM		> 100 µM	> 100 µM	> 100 µM				
CC(=S)NC=C(C(N)=O)C(N)=O	> 100 µM	> 100	> 100 µM	> 100 µM	> 100 µM	> 100 µM	> 100 µM	> 100 µM	> 100 µM	> 100	> 100 µM	> 100 µM		> 100 µM	> 100 µM	> 100 µM				
Cc1ccc(C2SCc3nc4ccccc4n32)cc1 (centres undefined)	7.17 µM	6.55		14 µM	12.5 µM	> 100 µM	68.3 µM	5.01 µM	> 100 µM	9.04	6.33 µM	21.3 µM	22.6 µM	> 100 µM	> 100 µM	> 100 µM				
O=C(c1ccccc1)N1CCC(Nc2cccnc2)O1 (centres undefined)	> 100 µM	> 100	> 100 µM	> 100 µM	> 100 µM	> 100 µM		> 100 µM	> 100 µM	> 100	> 100 µM	> 100 µM	> 100 µM	> 100 µM	> 100 µM	> 100 µM				

Compound	TGI [1]	TGI [2] [µM]	TGI [3]	TGI [4]	TGI [5]	TGI [6]	TGI [7]	TGI [8]	TGI [9]	TGI [10] [µM]	TGI [11]	TGI [12]	TGI [13]	TGI [14]	TGI [15]	TGI [16]	GI50 [14]	GI50 [2] [µM]	GI50 [4] [µM]	GI50 [11] [µM]
CCC1=NC(N/N=C/c2ccco2)=N/C1=C\c1ccco1	> 100 µM	> 100	> 100 µM	> 100 µM	> 100 µM	> 100 µM	> 100 µM	> 100 µM	> 100 µM	> 100	> 100 µM	> 100 µM	> 100 µM		> 100 µM	> 100 µM				
CCOC(=O)CCCOc1cc(-c2ccccc2F)nc2cc3c(cc12)OCO3		> 100	> 100 µM	> 100 µM	> 100 µM	32.1 µM	> 100 µM	> 100 µM	> 100 µM		> 100 µM	> 100 µM		55.7 µM	> 100 µM	> 100 µM	15 µM	48.7	> 100	25
N#Cc1n[nH]n(-c2ccccc2)c1=O	> 100 µM	> 100		> 100 µM	> 100 µM	> 100 µM	> 100 µM	> 100 µM	> 100 µM	> 100	> 100 µM	> 100 µM	> 100 µM	> 100 µM	> 100 µM	> 100 µM				
CCC12CN(C(=O)OC)C3C(Br)C1CCC(=O)C32 (centres undefined)	> 100 µM	> 100	> 100 µM		> 100 µM	> 100 µM	> 100 µM	> 100 µM	> 100 µM	> 100	> 100 µM	> 100 µM	> 100 µM	> 100 µM	> 100 µM	> 100 µM				
CCOC1Oc2ccccc2-c2nc(N)ncc21 (centres undefined)	> 100 µM	> 100	61.2 µM	> 100 µM	> 100 µM		> 100 µM	66.3 µM	> 100 µM	81.3	> 100 µM	> 100 µM	> 100 µM	> 100 µM	> 100 µM	> 100 µM				
OCCCN=C1N=C(Cl)/C(=C\c2ccccc2)N1	> 100 µM	> 100	> 100 µM	> 100 µM	> 100 µM	> 100 µM	> 100 µM	> 100 µM	> 100 µM	> 100	> 100 µM		> 100 µM		> 100 µM	> 100 µM				
C[C@]12O[C@@]3(C)O[C@@]3(C)[C@]3(C)O[C@]3(C)[C@@]1(C)O2	> 100 µM	> 100	> 100 µM	> 100 µM	> 100 µM		> 100 µM	> 100 µM	> 100 µM	> 100		> 100 µM	> 100 µM		> 100 µM	> 100 µM				
O=[N+]([O-])c1ccc2nc(/C=C(\O)c3ccccc3)c(NC34CC5CC(CC(C5)C3)C4)nc2c1	> 10 µM	> 10			> 10 µM	> 10 µM	> 10 µM	> 10 µM	> 10 µM	> 10	> 10 µM		> 10 µM	> 10 µM	> 10 µM	> 10 µM				
CCOC(=O)c1nc2ccc(C(F)(F)F)cc2nc1NCc1ccc(F)cc1	> 100 µM	> 100	> 100 µM	> 100 µM	> 100 µM	78.3 µM	> 100 µM	> 100 µM	> 100 µM		> 100 µM	> 100 µM	> 100 µM	> 100 µM	84.8 µM	> 100 µM				
COc1ccc(-c2n[nH]c3nc4ccccc4n3c2=O)cc1		> 100		> 100 µM	> 100 µM	> 100 µM	> 100 µM	> 100 µM	> 100 µM	> 100	> 100 µM		> 100 µM		> 100 µM	> 100 µM				
O=c1oc2ccccc2c(O)c1Cc1ccccc1Cc1c(O)c2ccccc2oc1=O	> 100 µM	> 100		> 100 µM	> 100 µM		> 100 µM	> 100 µM	> 100 µM	> 100	> 100 µM	> 100 µM	> 100 µM	> 100 µM	> 100 µM	> 100 µM				
O=C(O)C(C(F)(F)F)C(F)(F)F (tested in a mixture with another compound)	> 100 µM	> 100	> 100 µM	> 100 µM	> 100 µM		> 100 µM	> 100 µM	> 100 µM	> 100	> 100 µM	> 100 µM	> 100 µM	> 100 µM	> 100 µM	> 100 µM				
COC(=O)C(Cc1ccccc1)NP(=O)(O)OCC1OC(n2ccc(N)nc2=O)C(O)C1O (centres undefined)	> 100 µM	> 100	> 100 µM	> 100 µM	> 100 µM	> 100 µM	> 100 µM	> 100 µM	> 100 µM	> 100		> 100 µM	> 100 µM	> 100 µM	> 100 µM	> 100 µM				
CN(C(=O)C12C3(C(=O)O)C4C5(C(=O)O)C3C1(C(=O)O)C5C42C(=O)O)C(C)(C)C (centres undefined)	> 100 µM		> 100 µM	> 100 µM	> 100 µM	> 100 µM	> 100 µM	> 100 µM	> 100 µM	> 100	> 100 µM	> 100 µM	> 100 µM	> 100 µM	> 100 µM	> 100 µM				
Oc1cc(F)cc2cccnc12	> 100 µM	> 100	2.86 µM	> 20.9 µM	6.74 µM	> 100 µM	4.29 µM	> 100 µM	> 100 µM	> 68.1	46.4 µM	> 42.6 µM	> 100 µM		> 74.7 µM	> 100 µM				
